Laboratory results taken from PMC10221946, “Screening of Tyrosinase, Xanthine Oxidase, and α-Glucosidase Inhibitors from Polygoni Cuspidati Rhizoma et Radix by Ultrafiltration and HPLC Analysis” (Molecules, 2023).
pIC50: −log10 of the molar value.

How the values were obtained:
α-GLU [1] = experiment: UF-HPLC screening, binding degree with α-GLU; conditions: PCR extraction 5 mg/mL, 6 U/mL α-GLU, 37 °C 60 min, active vs inactive enzyme peak area
Method: (§1) The UF experiment was performed according to the method described in the literature, with slight modifications. In the experimental group, 200 µL of the PCR extraction (5 mg/mL) was mixed with 200 µL of 3 enzyme solutions (200 U/mL of TYR, 4 U/mL of XOD, and 6 U/mL of α-GLU, respectively). The mixtures were incubated at 37 °C for 60 min, and then 200 μL of each of them was transferred to a 3 KDa molecular weight cut-off ultrafiltration centrifuge tube to separate the unbound compounds from the enzyme–ligand complexes by centrifugation (9400× g, 30 min). Finally, the ultrafiltration filter was washed three times with 5% methanol–PBS under centrifugal conditions (9400× g, 30 min) to completely remove any unbound components. The concentration and pH of the PBS used for the different enzymes were the same as for the offline inhibition tests.
(§2) Finally, the unbound component solutions of the experimental and control groups were analyzed by HPLC. […] Binding degree = (1 − P2/P1) × 100%(2)
(§3) HPLC condition: An Agilent 1260 high-performance liquid chromatography system (Agilent Technologies, Santa Clara, CA, USA), equipped with a quaternary pump system, an auto-sampler, a column oven, and a diode array detector, was employed in the current experiment. The sample was separated on an Agilent Poroshell 120 EC-C18 column (100 mm × 4.6 mm, 2.7 μm). The column temperature was set at 30 °C. The mobile phase was 0.1% aqueous formic acid (A) and acetonitrile (B), with a gradient elution procedure of 5% B (0 min), 5% B (3 min), 20% B (23 min), 24% B (28 min), 60% B (32 min), and 100% B (38 min). The flow rate was 0.6 mL/min. The detection wavelength was set at 290 nm, and the injection volume was 5.0 µL.

XOD [2] = molecular target: T1, XOD (Bos taurus, UniProt P80457); experiment: UF-HPLC screening, binding degree with XOD; conditions: PCR extraction 5 mg/mL, 4 U/mL XOD, 37 °C 60 min, active vs inactive enzyme peak area
T1 construct: purchased Sigma-Aldrich (Shanghai, China)
T1 sequence (P80457 whole entry): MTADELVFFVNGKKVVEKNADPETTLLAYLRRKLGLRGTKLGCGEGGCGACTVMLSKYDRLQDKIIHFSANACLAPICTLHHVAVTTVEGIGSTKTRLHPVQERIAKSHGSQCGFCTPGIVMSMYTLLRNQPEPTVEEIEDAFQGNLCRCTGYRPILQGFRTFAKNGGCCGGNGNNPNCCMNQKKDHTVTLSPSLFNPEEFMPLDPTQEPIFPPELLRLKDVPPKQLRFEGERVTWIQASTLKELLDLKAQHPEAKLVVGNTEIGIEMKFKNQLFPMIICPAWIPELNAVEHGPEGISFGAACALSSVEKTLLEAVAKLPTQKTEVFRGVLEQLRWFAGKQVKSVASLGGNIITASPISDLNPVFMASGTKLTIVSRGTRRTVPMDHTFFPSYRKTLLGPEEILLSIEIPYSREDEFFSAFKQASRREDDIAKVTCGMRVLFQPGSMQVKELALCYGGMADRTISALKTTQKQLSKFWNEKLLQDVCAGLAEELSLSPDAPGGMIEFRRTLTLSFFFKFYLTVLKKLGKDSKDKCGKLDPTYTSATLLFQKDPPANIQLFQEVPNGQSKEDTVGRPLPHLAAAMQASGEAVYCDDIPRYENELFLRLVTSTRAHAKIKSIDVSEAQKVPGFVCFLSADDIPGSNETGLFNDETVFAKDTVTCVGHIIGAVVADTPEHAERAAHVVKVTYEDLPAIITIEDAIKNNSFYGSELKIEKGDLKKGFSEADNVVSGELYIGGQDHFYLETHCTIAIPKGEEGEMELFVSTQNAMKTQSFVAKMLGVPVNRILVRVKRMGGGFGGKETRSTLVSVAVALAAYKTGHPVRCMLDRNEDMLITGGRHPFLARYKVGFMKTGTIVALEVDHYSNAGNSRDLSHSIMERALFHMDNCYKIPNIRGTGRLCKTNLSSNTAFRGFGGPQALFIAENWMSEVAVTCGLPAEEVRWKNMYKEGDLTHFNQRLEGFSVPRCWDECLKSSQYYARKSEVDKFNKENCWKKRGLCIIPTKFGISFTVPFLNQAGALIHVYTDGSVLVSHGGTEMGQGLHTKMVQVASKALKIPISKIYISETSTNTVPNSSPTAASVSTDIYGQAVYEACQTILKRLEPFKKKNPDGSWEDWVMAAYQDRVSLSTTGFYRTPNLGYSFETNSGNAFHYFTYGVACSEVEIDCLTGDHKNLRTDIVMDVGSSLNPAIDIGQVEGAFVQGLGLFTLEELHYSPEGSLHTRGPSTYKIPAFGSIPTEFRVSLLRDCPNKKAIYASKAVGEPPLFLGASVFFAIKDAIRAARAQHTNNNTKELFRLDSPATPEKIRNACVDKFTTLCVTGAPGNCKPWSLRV
Method: as §1, §2, §3

TYR [3] = experiment: UF-HPLC screening, binding degree with TYR; conditions: PCR extraction 5 mg/mL, 200 U/mL TYR, 37 °C 60 min, active vs inactive enzyme peak area
Method: as §1, §2, §3

TYR [4] = experiment: Kinetic analysis (Lineweaver–Burk) on TYR; assay type: biochemical; conditions: Lineweaver–Burk plot, L-tyrosine 1.0~5.0 mM, TYR 200 U/mL
Method: (§4) Subsequently, kinetic analysis was conducted using Lineweaver–Burk plots to investigate the inhibition modes on enzymes caused by methylgallate and polydatin. Competitive, noncompetitive, and mixed inhibitions are three common modes in enzyme kinetic analysis. […] All of the straight lines almost intersect on the Y axis at a certain point. […] All of the straight lines almost intersect on the X axis at a certain point. […] All of the straight lines usually intersect in the quadrants at one point.
(§5) In this work, Lineweaver–Burk was used to investigate the inhibition type of methylgallate and polydatin on enzymes. For TYR, the concentration of the enzyme was kept constant at 200 U/mL, and various concentrations of L-tyrosine (1.0~5.0 mM) were prepared. Various concentrations of methylgallate (0.0~1.3 mM) and polydatin (0.0~0.4 mM) were also provided. For XOD, the concentration of the enzyme was kept constant at 0.05 U/mL, and various concentrations of xanthin (0.06~0.50 mM) were prepared. Various concentrations of polydatin (0.0~0.5 mM) were also provided. For α-GLU, the concentration of the enzyme was kept constant at 0.15 U/mL, and various concentrations of ρNPG (0.8~5.0 mM) were prepared. Various concentrations of polydatin (0.0~3.6 mM) were also provided. GraphPad Prism 5.0 software (USA) was used for the calculation.

tyrosinase (TYR) = molecular target: T2, tyrosinase (TYR) (Agaricus bisporus, UniProt C7FF04); experiment: Tyrosinase (TYR) inhibition test, offline 96-well microplate; assay type: biochemical
T2 construct: purchased Sigma-Aldrich (Shanghai, China)
T2 sequence (C7FF04 1-392 limits assumed): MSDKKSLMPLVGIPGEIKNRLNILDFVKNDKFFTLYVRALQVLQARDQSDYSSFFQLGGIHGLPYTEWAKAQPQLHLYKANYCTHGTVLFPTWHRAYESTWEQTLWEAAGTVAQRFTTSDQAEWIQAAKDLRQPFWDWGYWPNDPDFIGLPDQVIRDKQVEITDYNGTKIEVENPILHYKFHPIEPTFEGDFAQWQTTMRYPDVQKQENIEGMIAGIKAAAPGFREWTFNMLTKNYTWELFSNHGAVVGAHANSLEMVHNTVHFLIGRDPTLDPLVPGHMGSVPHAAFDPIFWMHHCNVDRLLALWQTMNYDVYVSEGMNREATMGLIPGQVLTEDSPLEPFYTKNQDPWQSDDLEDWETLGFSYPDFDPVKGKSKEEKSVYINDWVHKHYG
Method: The reaction was incubated at 25 °C for 50 min. […] Inhibition (%) = [(Abscontrol − Abssample)/Abscontrol] × 100%(1)

α-GLU [5] = experiment: Kinetic analysis (Lineweaver–Burk) on α-GLU; assay type: biochemical; conditions: Lineweaver–Burk plot, ρNPG 0.8~5.0 mM, α-GLU 0.15 U/mL
Method: as §4, §5

XOD [6] = molecular target: T1, XOD; experiment: Kinetic analysis (Lineweaver–Burk) on XOD; assay type: biochemical; conditions: Lineweaver–Burk plot, xanthin 0.06~0.50 mM, XOD 0.05 U/mL
Method: as §4, §5

xanthine oxidase (XOD) = xanthine oxidase (XOD) (Bos taurus, UniProt P80457); experiment: Xanthine oxidase (XOD) inhibition test, offline 96-well microplate
Sequence of xanthine oxidase (XOD) (P80457 whole entry): as the sequence (P80457 whole entry) above
Method: In the XOD inhibition assay, each well contained 30 μL of the PCR sample, 30 μL of XOD (0.05 U/mL, dissolved in 200 mM of phosphate buffer, pH 8.5), and 15 μL of NBT (2 mg/mL, dissolved in 200 mM of phosphate buffer, pH 8.5). […] The reaction was stopped by adding 15 µL of SDS (10%). The reaction solution was tested at 560 nm.

## OC[C@H]1O[C@@H](Oc2cc(O)cc(/C=C/c3ccc(O)cc3)c2)[C@H](O)[C@@H](O)[C@@H]1O [Resveratrol-5-O-D-glucoside (7), Resveratrol-5-O-D-glucoside]
α-GLU [1]; listed as Peak 7
  Binding degree: α-GLU: 0.00%
XOD [2]; listed as Peak 7
  Binding degree: XOD: 11.65%
TYR [3]; listed as Peak 7
  Binding degree: TYR: 70.51%

## COC(=O)c1cc(O)c(O)c(O)c1 [Methylgallate (1), Methylgallate]
TYR [4]
  inhibition mode on TYR: noncompetitive type
α-GLU [1]
  Binding degree: α-GLU: 0.00%
Tyrosinase (TYR)
  pIC50: 3.26
XOD [2]
  Binding degree: XOD: 0.00%
TYR [3]
  Binding degree: TYR: 36.03%

## OC[C@H]1O[C@@H](Oc2cc(O)cc(/C=C/c3ccc(O)cc3)c2)[C@H](O)[C@@H](O)[C@@H]1O [Polydatin (5), Polydatin]
TYR [4]
  inhibition mode on TYR: mixed type
α-GLU [1]; listed as Peak 5
  Binding degree: α-GLU: 16.51%
Tyrosinase (TYR)
  pIC50: 3.73
XOD [2]; listed as Peak 5
  Binding degree: XOD: 55.80%
α-GLU [5]
  inhibition mode on α-GLU: mixed type
XOD [6]
  inhibition mode on XOD: competitive type
Xanthine oxidase (XOD)
  pIC50: 2.67
TYR [3]; listed as Peak 5
  Binding degree: TYR: 80.74%

## O=C(OC[C@H]1O[C@@H](OC(=O)c2cc(O)c(O)c(O)c2)[C@H](O)[C@@H](O)[C@@H]1O)c1cc(O)c(O)c(O)c1 [1,6-Di-O-galloyl-D-glucose (2), 1,6-Di-O-galloyl-D-glucose]
α-GLU [1]
  Binding degree: α-GLU: 0.00%
XOD [2]
  Binding degree: XOD: 50.69%
TYR [3]
  Binding degree: TYR: 77.53%

## OC[C@H]1O[C@@H](Oc2ccc(/C=C/c3cc(O)cc(O)c3)cc2)[C@H](O)[C@@H](O)[C@@H]1O [Resveratrol-4′-O-D-glucoside (4), Resveratrol-4′-O-D-glucoside]
α-GLU [1]
  Binding degree: α-GLU: 14.58%
XOD [2]
  Binding degree: XOD: 30.66%
TYR [3]
  Binding degree: TYR: 71.32%

## OC[C@H]1O[C@@H](Oc2ccc(/C=C/c3cc(O)cc(O[C@@H]4O[C@H](CO)[C@@H](O)[C@H](O)[C@H]4O)c3)cc2)[C@H](O)[C@@H](O)[C@@H]1O [Polydatin-4′-O-D-glucoside (3), Polydatin-4′-O-D-glucoside]
α-GLU [1]
  Binding degree: α-GLU: 0.00%
XOD [2]
  Binding degree: XOD: 0.00%
TYR [3]
  Binding degree: TYR: 57.64%

## O=C(O)CC(=O)OCC1OC(Oc2cc(O)cc(C=Cc3ccc(O)cc3)c2)C(O)C(O)C1O (stereo not shown) [Malonyl glucoside resveratrol (6), Malonyl glucoside resveratrol]
α-GLU [1]
  Binding degree: α-GLU: 11.90%
XOD [2]
  Binding degree: XOD: 49.77%
TYR [3]
  Binding degree: TYR: 57.00%
